# From a melting point compilation (Tetko et al.; mined from patent text by program, amines drawn as free bases though some values may be those of a salt)
# Non-standard residues stand in square brackets, D forms with d. Residues, ends and D or L forms follow the SMILES beside them. ξ: configuration not given here. *: point of attachment. Boc = CC(C)(C)OC(=O)*; ξA = CC(N)C(=O)O
row,SMILES,melting point [°C]
1,Cc1ccc(C2CC(C(F)(F)F)=NN2c2ccc(S(N)(=O)=O)cc2)cc1 (configuration not stated),140 to 143
2,Cn1cc(-c2ccc(Oc3ccc(F)cc3F)cc2)nc1C(N)=O,183 to 187
3,CC(=O)OC1CSC(Oc2cnccc2C)C(OC(C)=O)C1OC(C)=O (configuration not stated),150
4,COc1ccc(C(CC(=O)O)N2C(=O)c3cc(Cl)c(Cl)cc3C2=O)cc1 (configuration not stated),182 to 185
5,CCNc1nc(C#N)c(C#N)nc1-c1cccc(Br)c1,127 to 128
6,Cc1oc(-c2ccco2)nc1COc1ccc(COc2nn(Cc3ccccc3)cc2CO)cc1OCc1ccccc1,145 to 146
7,Cc1ccc(S(=O)(=O)NC(=O)C(C)(NC=O)C(C)C)cc1 (configuration not stated),131 to 135
8,CCCCc1nc(SC)c(C(=O)O)n1Cc1ccc(-c2ccccc2S(=O)(=O)NC(=O)C(c2ccccc2)c2ccccc2)cc1,205
9,CN(C)c1ccc(Cn2cnc3c(Cl)ncnc32)cc1,125 to 127
10,C=CCOc1cc(N)c(Cl)cc1C(=O)O,136 to 137
11,CCCCCCNc1nc(-c2ccccc2)c(-c2ccc(=O)n(C(C)C)n2)s1,90 to 92
12,CC(=O)OCC(=O)NCc1cccc2c1C(=O)N(C1CCC(=O)NC1=O)C2=O (configuration not stated),108 to 110
13,CCC(=O)N1Cc2cnn(C)c2-c2cc(Cl)ccc21,127 to 128
14,CC(C)C(=O)CC(=O)Nc1ccccc1,46.5 to 58.8
15,COC(=O)c1ccc2c(c1)S(=O)(=O)c1ccccc1NC2=O,300 to 302
16,CSc1c(CC(=O)O)ccc2c1[nH]c1ccccc12,210 to 212
17,CCOC(=O)N(C)CC1CN(c2c(F)cc3c(=O)c(C(=O)O)cn(C4CC4)c3c2F)CCO1 (configuration not stated),128 to 131
18,CCOC(=O)c1cn2c(ccc3ccc(OC)cc32)n1,146 to 148
19,Cc1ccc2ncccc2c1C(=O)NCC1CCCCC1,165
20,N#Cc1ccccc1Nc1ccccc1[N+](=O)[O-],134 to 138
21,Cc1cnc(C)n2c1c(CCN1CCC(NC(=O)c3ccccc3)CC1)c1ccccc12,233 to 234
22,CS(=O)(=O)Nc1cccc2c1CCC[C@H]2c1c[nH]cn1,118 to 123
23,N#Cc1cc2c(cc1F)S(=O)(=O)NCN2C1CC1,208 to 210
24,CC1SC(=O)NN=C1c1ccc2c(c1)C(C)(C)C(=O)N2C (configuration not stated),125
25,CN1C(=O)c2ccccc2N=C(N)C1c1ccccc1 (configuration not stated),282 to 286

row,SMILES,melting point [°C]
1,CC(=O)Oc1ccc(-c2cc3ccccc3[nH]2)cc1,203
2,COC(=O)c1cc(-c2ccc(OC)c(F)c2)nn(CC2CCCC2)c1=O,56 to 66
3,FC(F)(F)c1cn2c(c1-c1ccccc1)CCC2,154
4,COc1cc(Nc2nccc(-c3ccc(NCCCN4CCN(C)CC4)nc3)n2)cc(OC)c1OC,183 to 184
5,CN(C)C(=O)C1=C(C(=O)Nc2ccc(Cl)cc2)CCCC1,125
6,CCCCCCC(=O)N[C@H](CCC(=O)O)C(=O)O,92 to 96
7,N#CCc1ccccc1Sc1ccc(Cl)c(C(F)(F)F)c1,69 to 70
8,Cc1c(NC(=O)CC(C)(C)C)c(C)c2c(c1-c1ccco1)OC[C@@H]2c1ccc(C(C)C)cc1,214 to 217
9,CC(=O)C=Cc1ccc2c(c1)Cc1ccccc1-2,146 to 148
10,Cn1c2ccc(Br)cc2c2cc(C(=O)N3CCOCC3)sc21,184
11,CCOCCN(CC1=CCC(N)(Oc2ccccc2)C=C1)C(=O)C(Cl)Cl (configuration not stated),96 to 98
12,Cc1cccc(NC(=O)NC2CN(C(=O)C3CC3)c3ccccc3N(CC(=O)c3ccccc3C)C2=O)c1 (configuration not stated),207 to 209
13,OCc1ccc(-c2nn(Cc3ccccc3)c3ncncc23)o1,165
14,Cc1c(Cc2ccc([N+](=O)[O-])cc2)c(=O)oc2cc(O)cc(O)c12,280 to 285
15,O=C(O)c1ccnc(NC(=O)C(Cc2ccccc2)NP(=O)(O)O)c1 (configuration not stated),135 to 137
16,N#Cc1ccc(F)cc1-c1ccc(OCc2ccccc2)cc1,94 to 96
17,COc1ccc(C2(C#Cc3cccc(NC(=O)C(F)(F)F)c3)CCCC(=O)C2)cc1OC1CCCC1 (configuration not stated),63 to 65
18,Clc1n[nH]c2cccc(NC3=NCCN3)c12,245 to 250
19,CCC(CC)c1ccc(Cl)c2nc3n(c12)CCCCN3c1cnc(N(C)C)cc1C,156 to 157
20,COc1cc(C2CCN(C)CC2)ccc1Nc1ncc2ccc(-c3ccccc3OC)n2n1,71 to 84
21,COC(=O)c1nc(CN=[N+]=[N-])n2c1CN=C(c1ccccc1Cl)c1cc(Cl)ccc1-2,187 to 189
22,NC(C(=O)O)C(O)CC(=O)O (configuration not stated),137 to 138
23,CCN(CC)CCN1C(=O)Nc2ncccc2C1c1ccccc1 (configuration not stated),160 to 162
24,O=C(O)C1(c2ccc(CN3CCN(c4ccc(F)cc4F)CC3)cc2)CC1,70 to 74

# Next, values leading:
row,melting point [°C],SMILES
1,87 to 89,CCOC(=O)CNC(=O)CCN(C(=O)c1ccc(Cl)cc1)c1ccc(OC)cc1
2,225,COc1ccc(-c2nc(N)ncc2-c2ccc(=O)[nH]n2)cc1OC
3,204 to 206,CCOC(=O)Cc1ccc(N2Cc3ccccc3C2=N)cc1
4,123 to 124,OCCCOc1cccc(NC(=S)NCC(F)(F)F)n1
5,117 to 121,c1ccc2c(c1)NC(CN1CCOCC1)CO2 (configuration not stated)
6,143 to 146,CCOC(=O)c1c(Cl)nn(-c2c(Cl)cc(C(F)(F)F)cc2Cl)c1N
7,62.5,Cc1c(C(F)(F)C(F)(F)C(F)(F)F)ncn1-c1ncc(C(F)(F)F)cc1Cl
8,169 to 172,COc1cccc(NC(=O)c2cc(C)sc2Br)c1O
9,264 to 265,Brc1ccc(C#CC#Cc2ccc(Br)cc2)cc1
10,98 to 100,COC(=O)CNC(=O)C(C)NC(=O)CNC(=O)OC(C)(C)C (stereo not drawn) (Boc-Gly-[ξA]-Gly-OMe)
11,169 to 171,O=c1cc(C=Cc2ccc(Cl)cc2)oc(-c2ccccc2)c1
12,< 50,CC(O)c1cc([N+](=O)[O-])ccc1F (configuration not stated)
13,187 to 190,O=C(NC(=O)c1ccccc1)NC1CCC(=O)c2sccc21 (configuration not stated)
14,168 to 169,CCOc1c(OC)cccc1-c1nc2ccc(C(=O)O)cc2c(=O)[nH]1
15,82,C=CCS(=O)c1ncc(Cl)cn1 (configuration not stated)
16,148 to 149,O=C(ON=C1C(=O)c2ccccc2-c2ccccc21)c1ccccc1
17,104 to 106,COC(=O)c1ccc(S(C)(=O)=O)c(C2=NOCC2)c1C
18,213 to 217,COc1ccc(S(=O)(=O)Nc2cccc(C)c2NC(=O)c2ccncc2)cc1
19,149 to 151,N#CNC(=Nc1ccncc1)NCC(O)COc1ccc(Cl)cc1 (configuration not stated)
20,216 to 218,COC(=O)c1cc2c([nH]c3ccc(Br)cc32)s1
21,169 to 171,Cc1ccc(N2N=C3c4cc(C(=O)CCl)sc4CCC3CC2=O)cc1 (configuration not stated)
22,150,CCN(CC)CCOc1ccc(Nc2ncc3c(n2)N(C)C(=O)N(c2cccc(Br)c2)C3)cc1
23,162,CCOC(=O)c1cccn1CCN1CCC(=C2c3ccn(C)c3CCn3ccnc32)CC1
24,140 to 141,COc1cc(C)c(C(=O)c2c(F)ncc(C)c2I)c(OC)c1OC
25,285 to 287,Cc1cc(C)c2c(=O)cc(C(=O)O)[nH]c2c1
26,100 to 101,Cc1oc(-c2ccco2)nc1COc1cccc(CO)c1
27,266,O=C(Nc1ccc(O)cc1)c1cc(O)cc(O)c1

row,melting point [°C],SMILES
1,119 to 125,Cc1cc(C)c(C(=NO)C(F)(F)F)c(C)c1
2,254 to 256,COc1ccc(-c2ccc(N3CCCN(c4ccc(-c5ccc(OC)cc5)cn4)CC3)nc2)cc1
3,197 to 200,CCNC(=O)Nc1cn(-c2cccnc2)nc1C
4,134 to 136,CCC(=O)Oc1ccc2c(c1)CCC1C2CCC2(C)C(=O)CCC12 (configuration not stated)
5,190 to 195,CC(C)(C)OC(=O)Nc1ccc(NC(=O)CCCCC2CCSS2)cc1 (configuration not stated)
6,97 to 99,Cc1cccc(C=Cc2c(C(C)C)nc(C(C)C)c(CO)c2-c2ccc(F)cc2)c1
7,267 to 268,CNc1cc(Oc2ccc3c(C(=O)O)cccc3c2)ncn1
8,176 to 177,CSc1ncncc1C(O)c1ccccc1F (configuration not stated)
9,149 to 150,OCCc1nccn1CCCCc1ccc(OCc2coc(/C=C/c3ccc(Br)cc3)n2)cc1
10,230 to 232,COc1cc(N2CCN([C@H]3CC[C@H](c4cn(C)c5ccc(C#N)cc54)CC3)CC2)c2nccc(C)c2c1
11,138 to 139,CC(NCC#N)C(O)(Cn1cncn1)c1ccc(F)cc1F (configuration not stated)
12,207 to 209,CC(C)C1=CC(=O)C2=C(CCC3C(C)(C(=O)O)CCCC23C)C1=O (configuration not stated)
13,68 to 71,CC(=O)OCC1OC(n2cnc3c(NCC(c4ccccc4)c4ccccc4)nc(Cl)nc32)C(OC(C)=O)C1OC(C)=O (configuration not stated)
14,198 to 200,O=C(O)Cc1ccc(NC(=O)C(COc2ccccc2Cl)NS(=O)(=O)c2ccc(I)cc2)cc1 (racemic)
15,96,Cc1ccc(S(=O)(=O)N2CCCC2c2ccc(F)c(Cl)c2)cc1 (racemic)
16,116 to 118,NC(N)=NC(=O)Cc1c(-c2ccccc2)csc1-c1ccc(Oc2ccccc2)cc1
17,85 to 87,CCC(CC)(CO)c1cc(Cl)nnc1Cl
18,149 to 152,CC(=O)NC[C@H]1CN(c2ccc(C3=CCN(C=O)CC3)cc2)C(=O)O1
19,114 to 115,Cn1c(C=O)cnc1[N+](=O)[O-]
20,137 to 138,COC(=O)[C@H](CCC(=O)O)N1C(=O)c2ccccc2C1=O
21,332 to 336,N#CCCn1c2ccc(O)cc2c2c3c(c(-c4ccccc4Cl)cc21)C(=O)NC3=O
22,118 to 119,CC(=O)C1(COC(N)=O)CC2C=CC1C2 (configuration not stated)
23,132 to 134,O=C(Nc1c(C(O)(C(F)(F)F)C(F)(F)F)ccc2ccccc12)c1cc2ccccc2s1
24,176 to 179,Cc1cccc2c1ncn2Cc1oc2ccc(Br)cc2c(=O)c1-c1ccccc1
25,120,CCCNCCOc1ccc(NC(=O)c2n[nH]c3c2C(=O)CCC3)cn1
26,245 to 246,COC(=O)C(C)(C)c1ccc(C(=O)Nc2cn3cc(Cl)ccc3n2)cc1
